Usually Km stands for the substrate concentration at which the rate is half of its maximum.

Consider two compounds from PMC7151638, “Investigation of a thermostable multi-domain xylanase-glucuronoyl esterase enzyme from Caldicellulosiruptor kristjanssonii incorporating multiple carbohydrate-binding modules” (Biotechnology for Biofuels, 2020).

In the assay the target is T1, CkGE15A (Caldicellulosiruptor acetigenus, UniProt E4S6E9).
T1 construct: gene Calkr_2245; CE15 glucuronoyl esterase domain only, cut from the 191-kDa multidomain protein (CBM22-CBM22-GH10-CBM9-CBM9-CBM9-CE15-cadherin-SLH-SLH); modified pET-28a with TEV site, E. coli BL21, Ni IMAC
T1 sequence (E4S6E9 1270-1690 limits assumed): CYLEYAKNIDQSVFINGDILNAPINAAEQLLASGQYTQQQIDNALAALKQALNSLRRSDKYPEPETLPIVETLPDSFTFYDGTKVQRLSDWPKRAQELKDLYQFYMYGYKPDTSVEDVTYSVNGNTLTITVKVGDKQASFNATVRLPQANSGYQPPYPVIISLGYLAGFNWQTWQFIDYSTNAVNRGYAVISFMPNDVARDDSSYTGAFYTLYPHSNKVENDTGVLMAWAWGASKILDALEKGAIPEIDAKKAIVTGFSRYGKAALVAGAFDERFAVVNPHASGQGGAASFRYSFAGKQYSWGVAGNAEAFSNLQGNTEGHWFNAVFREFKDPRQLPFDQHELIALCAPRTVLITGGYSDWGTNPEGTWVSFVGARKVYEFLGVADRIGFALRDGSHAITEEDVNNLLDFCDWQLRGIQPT
The assay can be described thus: continuous coupled assay of uronic acid release (K-URONIC kit, NADH at […] nm). In kind it is biochemical. Conditions: 22 °C; pH 7.5; printed as 'Cannot be saturated up to 40 mM'.

The structures appear in SMILES notation.

As to `C=CCOC(=O)[C@H]1OC(O)[C@H](O)[C@@H](O)[C@@H]1O` (stereo partly drawn) [AllGlcA, Allyl-D-glucuronoate], the Km was above 40 mM.

As to `COC(=O)[C@H]1OC(O)[C@H](O)[C@@H](O)[C@@H]1O` (stereo partly drawn) [MeGlcA, Methyl-D-glucuronoate], the Michaelis constant (Km) is above 40 mM.
